Reference: the OPERA property sets (Mansouri et al. 2018)
Values after ≈ are worked out from the molar mass of the structure shown.

SMILES	solubility (25 °C) [mM]	also measured
FC(F)F	58.4 (≈ 4090 µg/mL)	–
FC(F)(F)C(F)(F)Cl	0.382 (≈ 59 µg/mL)	–
CI	–	solubility (20 °C): 97.2 mM (≈ 13800 µg/mL)
Clc1ccccc1	4.42 (≈ 498 µg/mL)	–
BrC=CBr	34.7 (≈ 6440 µg/mL)	–
FC(F)(F)Br	2.15 (≈ 320 µg/mL)	–
CC(F)F	–	solubility (21 °C): 48.5 mM (≈ 3200 µg/mL)
BrC(Br)Br	13.8 (≈ 3490 µg/mL)	–
ClCCl	153 (≈ 13000 µg/mL)	–
CBr	160 (≈ 15200 µg/mL)	–
CF	–	solubility (20 °C): 667 mM (≈ 22700 µg/mL)
ClC(Cl)(Cl)Cl	5.16 (≈ 793 µg/mL)	–
FC(Cl)Cl	183 (≈ 18800 µg/mL)	–
FC(F)(F)F	0.214 (≈ 18.8 µg/mL)	–
C=C(F)F	197 (≈ 12600 µg/mL)	–
CC(Cl)CCl (stereo not drawn)	24.8 (≈ 2800 µg/mL)	–
FC(F)Cl	32 (≈ 2770 µg/mL)	–
FC(F)=C(F)F	1.58 (≈ 158 µg/mL)	–
